Experiments:
[1] = Radioimmunoassay of plasma EGF correlated with plucking force; format: in vivo, sheep
Procedure: During the course of the above trails blood samples were taken from selected animals at approximately 1/2 hour intervals after the start of treatment. A correlation between radioimmunoassay determinations of plasma concentrations EGF and forces subsequently required to pluck wool from the skin of the sheep, pointed to the desirability of establishing a plasma concentration EGF of at least about 10 ng/ml for a period of at least about 15 hrs. in order to modify wool growth sufficiently for the fleece to be easily removed by hand.

new born mice = conditions: injected into new born mice; cited from earlier work
Adult Merino wethers [2] = assay: Subcutaneous infusion in sheep: staple plucking force and defleecing result; format: in vivo; conditions: for Plucking Force day 7: day 7 (in day 9 column)
Excerpt: One way of defining the extent of wool fibre weakening is by reference to the plucking force (Newtons/ktex, or N/ktex) required to remove the fleece. Methods for making this measurement are described by A. J. Gordon, Aust. J. of Exp. Agric. Anim. Husb. 20, 40-49, and Moore et al, Search. 12, 128-129.
Adult Merino wethers were housed under cover in individual pens or metabolic cages. The animals were offered a maintenance ration of 600 g of a pelleted mixture of 60% lucerne and 40% oats as one meal daily. Drinking water was provided ad lib.
(§1) Wethers were prepared for infusion experiments by the insertion of a polythene catheter below the skin so that the orifice lay near the centre of a 10×10 cm tattooed side on the right midside region of the body. The defleecing agent was dissolved in sterile saline solution and infused using a Harvard pump delivering a volume of 0.030 ml/min. Control animals were infused with saline solution alone.

Adult Merino wethers [3] = assay: Wool harvested from tattooed midside area after subcutaneous infusion (wool growth); format: in vivo, sheep
Procedure: as §1
Recovery to preinfusion growth levels was observed 2 weeks later. At lower dose levels wool growth inhibition was noticeably less, the maximum recorded effect being about 80% inhibition of wool growth. This occurred about 4 weeks after infusion, but normal wool growth was attained about 2 weeks later.

[4] = sheep 1, 36.3 kg, EGF dose total 27.5, 1.86 mg/kg^0.75, s.c. infusion 66 hr
[5] = sheep 3, 41.0 kg, EGF dose total 11.7, 0.74 mg/kg^0.75, s.c. infusion 28 hr
[6] = sheep 4, EGF dose total 11.7, s.c. infusion 28 hr
[7] = sheep 5, EGF dose total 10.0, s.c. infusion 28 hr
[8] = sheep 7, 49.0 kg, EGF dose total 5.8, 0.32 mg/kg^0.75, s.c. infusion 28 hr
[9] = sheep 8, 47.6 kg, EGF dose total 4.7, 0.26 mg/kg^0.75, s.c. infusion 28 hr
[10] = sheep 9, 47.4 kg, EGF dose total 4.7, 0.26 mg/kg^0.75, s.c. infusion 28 hr
[11] = sheep 10, 42.0 kg, EGF dose total 4.7, 0.28 mg/kg^0.75, s.c. infusion 26.5 hr
[12] = sheep 12, 45.4 kg, EGF dose total 2.9, 0.17 mg/kg^0.75, s.c. infusion 28 hr
[13] = sheep 13, 30.6 kg, EGF dose total 2.4, 0.19 mg/kg^0.75, s.c. infusion 25 hr
[14] = sheep 14, 29.4 kg, EGF dose total 2.0, 0.16 mg/kg^0.75, s.c. infusion 26.5 hr
[15] = sheep 16, EGF dose total 1.0, s.c. infusion 28 hr
[16] = sheep 17, 40.8 kg, EGF dose total 1.0, 0.06 mg/kg^0.75, s.c. infusion 28 hr
[17] = sheep 19, 31.8 kg, EGF dose total 5.0, 0.37 mg/kg^0.75, s.c. infusion 7 hr
[18] = sheep 20, 41.0 kg, EGF dose total 5.0, 0.31 mg/kg^0.75, s.c. infusion 7 hr
[19] = sheep 21, 41.9 kg, EGF dose total 5.0, 0.30 mg/kg^0.75, s.c. infusion 7 hr
[20] = sheep 22, 45.0 kg, EGF dose total 5.0, 0.29 mg/kg^0.75, s.c. infusion 7 hr
[21] = sheep 23, 50.6 kg, EGF dose total 5.0, 0.26 mg/kg^0.75, s.c. infusion 7 hr
[22] = sheep 24, 28.6 kg, EGF dose total 2.4, 0.20 mg/kg^0.75, s.c. infusion 48 hr
[23] = sheep 25, 28.4 kg, EGF dose total 2.4, 0.19 mg/kg^0.75, s.c. infusion 48 hr
[24] = sheep 26, 42.0 kg, EGF 1-45 dose total 4.9, 0.30 mg/kg^0.75, s.c. infusion 26.5 hr
[25] = sheep 27, EGF 1-45 dose total 1.0, s.c. infusion 28 hr

Substance: EGF: polypeptide of 53 amino acids prepared from the submaxillary glands of adult male mice
- Period of plasma concentration needed for fleece to be easily removed by hand ([1]; at plasma EGF of at least about 10 ng/ml): at least 15 hrs
- Plasma concentration EGF needed for fleece to be easily removed by hand ([1]; radioimmunoassay, correlated with plucking force): at least 10 ng/ml
- Effect on body growth rate and hair growth (new born mice): can inhibit body growth rate and hair growth
- Fleece removal (Adult Merino wethers [2]; s.c. infusion at rates as low as 0.16 mg EGF/kg^0.75): consistently allowed fleece to be easily removed
- Time to casting of the whole fleece (Adult Merino wethers [2]; s.c. infusion of amounts greater than about 0.25 mg EGF/kg^0.75): ≤ 7 days
- Fleece result (Adult Merino wethers [2]; s.c. infusions less than 0.25 mg EGF/kg^0.75): fleeces were retained but staples could easily be removed by hand
- Plucking Force day 1 (Adult Merino wethers [2]; [4]): 12.2 N/ktex
- Plucking Force day 9 (Adult Merino wethers [2]; [4]): 0.1 N/ktex
- Result (Adult Merino wethers [2]; [4]): Fleece cast
- Plucking Force day 1 (Adult Merino wethers [2]; [5]): 8.9 N/ktex
- Plucking Force day 9 (Adult Merino wethers [2]; [5]): 0 N/ktex
- Result (Adult Merino wethers [2]; [5]): Fleece cast
- Plucking Force day 1 (Adult Merino wethers [2]; [6]): 3.4 N/ktex
- Result (Adult Merino wethers [2]; [6]): Fleece cast
- Plucking Force day 7 (Adult Merino wethers [2]; [6]): 0.3 N/ktex
- Plucking Force day 1 (Adult Merino wethers [2]; [7]): 4.1 N/ktex
- Result (Adult Merino wethers [2]; [7]): Fleece cast
- Plucking Force day 7 (Adult Merino wethers [2]; [7]): 0.2 N/ktex
- Plucking Force day 1 (Adult Merino wethers [2]; [8]): 7.5 N/ktex
- Plucking Force day 9 (Adult Merino wethers [2]; [8]): 0.4 N/ktex
- Result (Adult Merino wethers [2]; [8]): Fleece cast
- Plucking Force day 1 (Adult Merino wethers [2]; [9]): 21.3 N/ktex
- Plucking Force day 9 (Adult Merino wethers [2]; [9]): 2.1 N/ktex
- Result (Adult Merino wethers [2]; [9]): Fleece cast
- Plucking Force day 1 (Adult Merino wethers [2]; [10]): 12.5 N/ktex
- Plucking Force day 9 (Adult Merino wethers [2]; [10]): 1.4 N/ktex
- Result (Adult Merino wethers [2]; [10]): Fleece cast
- Plucking Force day 1 (Adult Merino wethers [2]; [11]): 7.6 N/ktex
- Plucking Force day 9 (Adult Merino wethers [2]; [11]): 0.1 N/ktex
- Result (Adult Merino wethers [2]; [11]): Fleece cast
- Plucking Force day 1 (Adult Merino wethers [2]; [12]): 6.6 N/ktex
- Plucking Force day 9 (Adult Merino wethers [2]; [12]): 0.6 N/ktex
- Result (Adult Merino wethers [2]; [12]): Weakened fibre
- Plucking Force day 1 (Adult Merino wethers [2]; [13]): 11.3 N/ktex
- Plucking Force day 9 (Adult Merino wethers [2]; [13]): 2.1 N/ktex
- Result (Adult Merino wethers [2]; [13]): Weakened fibre
- Plucking Force day 1 (Adult Merino wethers [2]; [14]): 9.3 N/ktex
- Plucking Force day 9 (Adult Merino wethers [2]; [14]): 1.5 N/ktex
- Result (Adult Merino wethers [2]; [14]): Weakened fibre
- Plucking Force day 1 (Adult Merino wethers [2]; [15]): 5.5 N/ktex
- Plucking Force day 9 (Adult Merino wethers [2]; [15]): 3.6 N/ktex
- Result (Adult Merino wethers [2]; [15]): Weakened fibre
- Plucking Force day 1 (Adult Merino wethers [2]; [16]): 10.6 N/ktex
- Plucking Force day 9 (Adult Merino wethers [2]; [16]): 8.7 N/ktex
- Result (Adult Merino wethers [2]; [16]): No effect
- Plucking Force day 1 (Adult Merino wethers [2]; [17]): 7.0 N/ktex
- Plucking Force day 9 (Adult Merino wethers [2]; [17]): 0.4 N/ktex
- Result (Adult Merino wethers [2]; [17]): Fleece cast
- Plucking Force day 1 (Adult Merino wethers [2]; [18]): 17.9 N/ktex
- Plucking Force day 9 (Adult Merino wethers [2]; [18]): 1.0 N/ktex
- Result (Adult Merino wethers [2]; [18]): Fleece cast
- Plucking Force day 1 (Adult Merino wethers [2]; [19]): 11.4 N/ktex
- Plucking Force day 9 (Adult Merino wethers [2]; [19]): 0.8 N/ktex
- Result (Adult Merino wethers [2]; [19]): Fleece cast
- Plucking Force day 1 (Adult Merino wethers [2]; [20]): 9.0 N/ktex
- Plucking Force day 9 (Adult Merino wethers [2]; [20]): 1.0 N/ktex
- Result (Adult Merino wethers [2]; [20]): Fleece cast
- Plucking Force day 1 (Adult Merino wethers [2]; [21]): 12.7 N/ktex
- Plucking Force day 9 (Adult Merino wethers [2]; [21]): 2.8 N/ktex
- Result (Adult Merino wethers [2]; [21]): Fleece cast
- Plucking Force day 1 (Adult Merino wethers [2]; [22]): 14.8 N/ktex
- Plucking Force day 9 (Adult Merino wethers [2]; [22]): 3.2 N/ktex
- Result (Adult Merino wethers [2]; [22]): Weakened fibre
- Plucking Force day 1 (Adult Merino wethers [2]; [23]): 11.7 N/ktex
- Plucking Force day 9 (Adult Merino wethers [2]; [23]): 2.4 N/ktex
- Result (Adult Merino wethers [2]; [23]): Weakened fibre
- Wool production (Adult Merino wethers [3]; 0.74 and 1.86 mg EGF/kg^0.75, 2 weeks after the start of infusion): declined to near zero
- Time to recovery to preinfusion growth levels (Adult Merino wethers [3]; 0.74 and 1.86 mg EGF/kg^0.75, counted after the near-zero point (2 weeks after start)): 2 weeks
- Time of maximum wool growth inhibition after infusion (Adult Merino wethers [3]; lower dose levels): about 4 weeks
- Time to normal wool growth after maximum inhibition (Adult Merino wethers [3]; lower dose levels): about 2 weeks
- Maximum inhibition of wool growth (Adult Merino wethers [3]; lower dose levels (below 0.74 mg EGF/kg^0.75)): about 80%

Substance: EGF 1-45: derivative prepared by tryptic digestion of the intact EGF peptide (NSYPGCPSSYDGYCLNGGVCMHIESLDSYTCNCVIGYSGDRCQTR; not fully specified; Epidermal growth factor; UniProt P01132 977-1021, looked up, fragment)
- Infusion results compared with EGF (Adult Merino wethers [2]; s.c. infusion): closely similar results
- Plucking Force day 1 (Adult Merino wethers [2]; [24]): 5.6 N/ktex
- Plucking Force day 9 (Adult Merino wethers [2]; [24]): 0.3 N/ktex
- Result (Adult Merino wethers [2]; [24]): Fleece cast
- Plucking Force day 1 (Adult Merino wethers [2]; [25]): 4.1 N/ktex
- Plucking Force day 9 (Adult Merino wethers [2]; [25]): 3.1 N/ktex
- Result (Adult Merino wethers [2]; [25]): Weakened fibre
